# Tested on: Karpas-231 cell line
# Test: Hematological cell line viability/apoptosis flow cytometry assay
# Format: cell-based
# Details: Karpas-231 (ALL), 120 h
# Procedure: Cell Proliferation and Viability Assay Using Hematological Cell Lines: The following exemplary anti-proliferative assay uses exemplary hematological cell lines in the following. The in vitro growth inhibitory activity of Compound 1 described herein was evaluated using a 384-well flow cytometry assay.
# The final concentration of DMSO was 0.1% (v/v). Following the addition of Compound 1 or DMSO and incubation for 120 hours, cell number and cell death were analyzed by flow cytometry (Attune®, Thermo Fisher) using Annexin V and the live-cell impermeant DNA dye, DRAQ7. Phosphatidylserine translocates from the inner layer to the outer layer of the cell membrane early in apoptosis and Annexin V binds to the exposed phosphatidylserine found on the surface of an apoptotic cell. The vital dye DRAQ7 is excluded by intact live cells and only stains cells that have died as a result of apoptosis or necrosis.
# Flow cytometry data analysis was then performed using the Flow Jo_v10 software to determine the number of viable cells (Annexin V and DRAQ7 double negative staining cells) and percentage of apoptotic cells (Annexin V positive cells) for each condition. The live cell count for every concentration was normalized to the DMSO control (considered as 100%) to calculate the percentage of viable cells remaining after treatment and graphed using GraphPad Prism 7.03. The IC50 (50% inhibitory concentration) and Emax (maximum efficacy achieved) values were then calculated by performing nonlinear regression curve fitting using log(inhibitor) vs. normalized response—variable slope analysis on GraphPad Prism 7.03. Area under the curve (AUC) was calculated by performing area under curve analysis on GraphPad Prism 7.03. Similarly, for apoptosis analysis, the percentage of apoptosis combining both “early” (Annexin V positive and DRAQ7 negative) and “late” apoptosis (Annexin V and DRAQ7 positive) cell gates relative to DMSO was graphed using GraphPad Prism 7.03. The AUC, EC50 (concentration of compound that produces half-maximal apoptosis response) and Ymax (maximal percentage of apoptosis achieved) values from apoptosis curves were calculated by performing area under curve analysis and nonlinear regression curve fitting using log(agonist) vs. normalized response—Variable slope analysis on GraphPad Prism 7.03.
# Dose-response proliferation curves for the panel of hematological cell lines and non-linear curve-fit regression were used to determine IC50, AUC, and Emax for % viable cells (Emax for viability varies between 100 at low doses and 0 at high doses, which corresponds to inhibition of all viable cells), and dose-response apoptosis curves were used to determine the EC50, AUC, and Ymax for % apoptosis (Ymax for apoptosis varies from 0 at low doses and 100 at higher doses which corresponds to death of all cells). […] Viability and apoptosis for all cell lines was determined by Annexin V/[…] flow cytometry.
smiles,measurement,setting,value
"O=C1CC[C@H](N2C(=O)c3cccc(NCc4ccc(CN5CC(N6CCOCC6)C5)cc4F)c3C2=O)C(=O)N1 [Compound 1, (S)-2-(2,6-dioxopiperidin-3-yl)-4-((2-fluoro-4-((3-morpholinoazetidin-1-yl)methyl)benzyl)amino)isoindoline-1,3-dione]",% Viable Cells AUC,,449.4
same,% Viable Cells Emax,,0%
same,Apoptosis AUC,,5.720
same,Apoptosis Ymax,,5.00%
same,EC50,,896 µM
same,IC50,read-out: % Viable Cells IC50,0.484 µM
